As usually defined, the IC50 is the concentration at which inhibition is half-maximal. Lower therefore signals higher potency.

The source of these data is ChEMBL document CHEMBL3352638, “Improving the MDR reversal activity of 6,17-epoxylathyrane diterpenes” (Bioorg Med Chem, 2014).

The test system of data set [1] is L5178Y. Put plainly: Antiproliferative activity against human MDR1 transfected mouse L5178Y cells after 72 hrs by MTT assay. In kind it is functional, cell-based. (Tetrazolium assays rely on reduction of a dye to a coloured formazan, in cell work by metabolically active cells.)
Data set [2] concerns the target T1, ATP-dependent translocase ABCB1 (Homo sapiens, UniProt P08183). Put plainly: Inhibition of human MDR1 expressed in mouse L5178Y cells assessed as Rhodamine-123 accumulation measured as fluorescence activity at 20 uM after 20 mins by flow cytometry relative to control. In kind it is cell-based.
Data set [3] addresses T1, ATP-dependent translocase ABCB1. Put plainly: Inhibition of human MDR1 expressed in mouse L5178Y cells assessed as Rhodamine-123 accumulation measured as fluorescence activity at 2 uM after 20 mins by flow cytometry relative to control. In kind it is cell-based.
Data set [4] has as its system L5178Y. Put plainly: Antiproliferative activity against mouse L5178Y cells after 72 hrs by MTT assay. The class given is functional, cell-based.
For data set [5], the system named is L5178Y. Put plainly: Antiproliferative activity against human MDR1 transfected mouse L5178Y cells after 48 hrs by MTT assay in presence of doxorubicin. In kind it is functional.
The target of data set [6] is T1, ATP-dependent translocase ABCB1. Put plainly: Inhibition of human MDR1 expressed in mouse L5178Y cells assessed as Rhodamine-123 accumulation measured as fluorescence activity at 80 uM after 20 mins by flow cytometry relative to control. In kind it is cell-based.
The target is the same in data set [7]. Put plainly: Inhibition of human MDR1 expressed in mouse L5178Y cells assessed as Rhodamine-123 accumulation measured as fluorescence activity at 40 uM after 20 mins by flow cytometry relative to control. In kind it is cell-based.
Data set [8] shares this target. Put plainly: Inhibition of human MDR1 expressed in mouse L5178Y cells assessed as Rhodamine-123 accumulation after 20 mins by flow cytometry. In kind it is cell-based. In general terms: A flow cytometer gives signals particle by particle.
Data set [9] has the same target. Put plainly: Stimulation of vanadate-sensitive ATPase activity of human MDR1 expressed in Sf9 membrane vesicles assessed as inorganic phosphate production at 2 to 100 uM after 10 mins by colorimetry. Particulars: sf9, 10 min; call rule not given here. In kind it is cell membranes.
The target is the same in data set [10]. Put plainly: Inhibition of verapamil-stimulated vanadate-sensitive ATPase activity of human MDR1 expressed in Sf9 membrane vesicles assessed as inorganic phosphate production at 2 to 100 uM after 10 mins by colorimetry. The class given is cell membranes. Particulars: sf9, 10 min.

T1 sequence (P08183 whole entry): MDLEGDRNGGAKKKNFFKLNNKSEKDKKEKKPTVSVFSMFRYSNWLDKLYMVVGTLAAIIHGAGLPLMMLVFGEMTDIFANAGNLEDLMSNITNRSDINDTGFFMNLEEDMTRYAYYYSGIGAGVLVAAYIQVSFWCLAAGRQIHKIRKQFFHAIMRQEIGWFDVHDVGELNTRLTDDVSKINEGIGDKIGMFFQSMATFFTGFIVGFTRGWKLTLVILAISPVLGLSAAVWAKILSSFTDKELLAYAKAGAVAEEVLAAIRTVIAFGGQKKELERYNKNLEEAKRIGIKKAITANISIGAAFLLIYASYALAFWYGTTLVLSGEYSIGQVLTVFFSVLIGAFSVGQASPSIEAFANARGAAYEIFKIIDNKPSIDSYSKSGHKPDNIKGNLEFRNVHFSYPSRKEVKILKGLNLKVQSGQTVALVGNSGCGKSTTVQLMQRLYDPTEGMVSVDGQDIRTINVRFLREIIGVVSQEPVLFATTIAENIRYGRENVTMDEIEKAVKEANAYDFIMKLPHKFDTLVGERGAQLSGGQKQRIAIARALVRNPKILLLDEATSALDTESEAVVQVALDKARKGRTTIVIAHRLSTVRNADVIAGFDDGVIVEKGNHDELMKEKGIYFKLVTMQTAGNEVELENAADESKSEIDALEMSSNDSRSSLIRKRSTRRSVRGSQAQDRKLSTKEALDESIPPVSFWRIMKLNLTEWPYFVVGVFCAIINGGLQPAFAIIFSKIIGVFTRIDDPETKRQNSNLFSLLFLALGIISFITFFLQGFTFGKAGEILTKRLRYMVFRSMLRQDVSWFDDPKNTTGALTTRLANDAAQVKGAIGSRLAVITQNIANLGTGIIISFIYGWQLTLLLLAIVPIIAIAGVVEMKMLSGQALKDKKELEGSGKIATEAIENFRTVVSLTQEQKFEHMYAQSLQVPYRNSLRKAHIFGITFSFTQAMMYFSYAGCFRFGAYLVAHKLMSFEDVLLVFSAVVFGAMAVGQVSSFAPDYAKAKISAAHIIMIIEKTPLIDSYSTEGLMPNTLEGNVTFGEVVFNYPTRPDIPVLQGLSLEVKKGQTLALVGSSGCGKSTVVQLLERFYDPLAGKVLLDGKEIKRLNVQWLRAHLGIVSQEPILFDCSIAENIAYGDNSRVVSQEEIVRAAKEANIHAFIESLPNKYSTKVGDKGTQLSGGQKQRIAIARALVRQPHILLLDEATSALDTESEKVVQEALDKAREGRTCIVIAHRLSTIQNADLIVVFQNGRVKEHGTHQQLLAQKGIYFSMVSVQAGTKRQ

Take `CCCCC(CC)C(=O)O[C@@H]1[C@@H]2[C@@H](OC(=O)C(CC)CCCC)[C@]3(CC[C@H]4[C@@H](/C=C(\C)C(=O)[C@@]2(O)C[C@@H]1C)C4(C)C)CO3` (some centres not stated): the values for the IC50 in the data set on L5178Y [1] and with L5178Y [4] were 46.6 µM and 37 µM, respectively. Also, the Ratio in data set [2] is 33.2; in [3], 5.6. Moreover, in the data set with L5178Y [5], the CI is 0.46.

On to `CC(=O)O[C@@H]1[C@H]2[C@@H](OC(=O)CC(C)C)[C@@H](C)C[C@]2(OC(C)=O)C(=O)/C(C)=C/[C@@H]2[C@H](CC[C@]13CO3)C2(C)C`, for which the Ratio in data set [6] was 22.6; in data set [2], 7.8. For the same molecule, the figures for the IC50 in the data set on L5178Y [1] and in the data set on L5178Y [4] were 92.5 µM and 66.8 µM, respectively. Besides, the CI in the data set with L5178Y [5] is given as 0.43.

On to `C/C1=C\[C@@H]2[C@H](CC[C@]3(CO3)[C@H](O)[C@H]3[C@@H](OC(=O)/C=C/c4ccccc4)[C@@H](C)C[C@]3(O)C1=O)C2(C)C`, for which the IC50 was 105 µM in the data set on L5178Y [1] and 108 µM in the data set with L5178Y [4]. Also, the Ratio in data set [2] turned out to be 7.4; in [3], 3.7. For the same molecule, in the data set with L5178Y [5], the CI is on record as 1.4.

On to `C/C1=C\[C@@H]2[C@H](CC[C@]3(CO3)[C@H](OC(=O)c3ccccc3)[C@H]3[C@@H](OC(=O)c4ccccc4)[C@@H](C)C[C@]3(OC(=O)c3ccccc3)C1=O)C2(C)C`, for which the figures for the IC50 in the data set on L5178Y [1] and in the data set with L5178Y [4] were 59 µM and 40.4 µM, respectively. The values for the Ratio in [2] and in data set [3] were 35.2 and 1.7, respectively. Moreover, the CI with L5178Y [5] is reported as 0.79.

Take `CC(=O)O[C@@H]1[C@H]2[C@@H](OC(=O)c3ccccc3)[C@@H](C)C[C@]2(OC(C)=O)C(=O)/C(C)=C/[C@@H]2[C@H](CC[C@]13CO3)C2(C)C`: the values for the Ratio in data set [7], in data set [2] and in data set [3] were 102.9, 80.6 and 63.4, respectively. In addition, the IC50 amounted to 63.3 µM in the data set with L5178Y [1] and 50.4 µM in the data set on L5178Y [4]. The “inhibition (INH)” value is on record as “Dose-dependent effect” in data set [8] and “Active” in [10]. For the same molecule, in data set [9], the result was Active. Besides, the CI in the data set with L5178Y [5] is 0.27.

As to `COc1ccc(C(=O)O[C@@H]2[C@@H]3[C@@H](OC(=O)c4ccc(OC)cc4)[C@]4(CC[C@H]5[C@@H](/C=C(\C)C(=O)[C@@]3(O)C[C@@H]2C)C5(C)C)CO4)cc1`, the IC50 in the data set with L5178Y [1] amounted to 86.8 µM; in the data set on L5178Y [4] it was 76 µM. Further, the Ratio in data set [2] was 23.3; in [3], 3. In the data set on L5178Y [5], the CI was 0.36.

`C/C1=C\[C@@H]2[C@H](CC[C@]3(CO3)[C@H](O)[C@H]3[C@@H](O)[C@@H](C)C[C@]3(O)C1=O)C2(C)C`: the Ratio was 14.8 in data set [6] and 1.5 in data set [2]. Further, the IC50 with L5178Y [1] turned out to be 89.2 µM; in the data set with L5178Y [4], 80.9 µM. The CI with L5178Y [5] was found to be 0.66.

Regarding `C/C1=C\[C@@H]2[C@H](CC[C@]3(CO3)[C@H](OC(=O)c3ccccc3)[C@H]3[C@@H](OC(=O)c4ccccc4)[C@@H](C)C[C@]3(O)C1=O)C2(C)C`, the IC50 in the data set with L5178Y [1] came out at 73.3 µM; with L5178Y [4], 68 µM. The Ratio is 22.9 in data set [2] and 2 in data set [3]. Also, the CI with L5178Y [5] is recorded as 0.24.

`C/C1=C\[C@@H]2[C@H](CC[C@]3(CO3)[C@H](OC(=O)c3ccc(C)cc3)[C@H]3[C@@H](OC(=O)c4ccc(C)cc4)[C@@H](C)C[C@]3(O)C1=O)C2(C)C`: the values for the IC50 in the data set with L5178Y [1] and with L5178Y [4] were 47.5 µM and 36.6 µM, respectively. The values for the Ratio in data set [2] and in data set [3] were 26.5 and 3.3, respectively. For the same molecule, the CI in the data set with L5178Y [5] came to 0.29.

Consider `CCCC(=O)O[C@@H]1[C@@H]2[C@@H](OC(=O)CCC)[C@]3(CC[C@H]4[C@@H](/C=C(\C)C(=O)[C@@]2(OC(=O)CCC)C[C@@H]1C)C4(C)C)CO3`, for which the Ratio is recorded as 98 in data set [7], 83.7 in [2] and 1.5 in [3]. Besides, the IC50 with L5178Y [1] was determined as 84.4 µM; in the data set with L5178Y [4], 56.4 µM. Moreover, the “inhibition (INH)” value in [8] is “Dose-dependent effect”. In the data set with L5178Y [5], the CI is recorded as 0.33.

Take `CCC(=O)O[C@@H]1[C@@H]2[C@@H](OC(C)=O)[C@]3(CC[C@H]4[C@@H](/C=C(\C)C(=O)[C@@]2(OC(C)=O)C[C@@H]1C)C4(C)C)CO3`: the values for the Ratio in [6] and in [2] were 58.6 and 1, respectively. Moreover, the IC50 in the data set on L5178Y [1] was 43 µM; in the data set with L5178Y [4] it was 41.6 µM. Further, the CI in the data set with L5178Y [5] is recorded as 0.05.

With `CCCC(=O)O[C@@H]1[C@@H]2[C@@H](OC(C)=O)[C@]3(CC[C@H]4[C@@H](/C=C(\C)C(=O)[C@@]2(OC(C)=O)C[C@@H]1C)C4(C)C)CO3`, the Ratio was 96.9 in data set [7], 74.3 in data set [2] and 8 in data set [3]. In addition, the IC50 in the data set with L5178Y [1] is 79.4 µM; in the data set on L5178Y [4] it was 46.4 µM. Further, the “inhibition (INH)” value in [8] was “Dose-dependent effect”; in data set [10], “Active”. In addition, the outcome in data set [9] was Active. For the same molecule, the CI in the data set with L5178Y [5] stood at 0.2.

For `CC(=O)O[C@@H]1[C@@H]2[C@@H](OC(C)=O)[C@]3(CC[C@H]4[C@@H](/C=C(\C)C(=O)[C@@]2(OC(C)=O)C[C@@H]1C)C4(C)C)CO3`, the results for the Ratio in data set [6] and in data set [2] were 35 and 1, respectively. Besides, the IC50 with L5178Y [1] stood at 93.5 µM; in the data set with L5178Y [4], 79.3 µM. Besides, the CI in the data set on L5178Y [5] is on record as 0.24.

As to `C/C1=C\[C@@H]2[C@H](CC[C@]3(CO3)[C@H](OC(=O)Cc3ccccc3)[C@H]3[C@@H](OC(=O)Cc4ccccc4)[C@@H](C)C[C@]3(O)C1=O)C2(C)C`, the Ratio was found to be 80.8 in data set [7], 73.4 in data set [2] and 3.9 in data set [3]. Besides, the IC50 in the data set on L5178Y [1] was found to be 123 µM; in the data set on L5178Y [4], 111 µM. Moreover, the “inhibition (INH)” value in [8] is on record as “Dose-dependent effect”. Also, the CI with L5178Y [5] is 1.38.
